{
  "source": "paper PMC8348017",
  "about": "(Molecules, 2021)",
  "type_in_all_cases": "biochemical",
  "key": {"[1]": {"molecular_target": "T1, hMAO-A (Homo sapiens, UniProt P21397)", "T1 construct": "gene MAOA; recombinant hMAO-A", "T1 sequence (P21397 1-527)": "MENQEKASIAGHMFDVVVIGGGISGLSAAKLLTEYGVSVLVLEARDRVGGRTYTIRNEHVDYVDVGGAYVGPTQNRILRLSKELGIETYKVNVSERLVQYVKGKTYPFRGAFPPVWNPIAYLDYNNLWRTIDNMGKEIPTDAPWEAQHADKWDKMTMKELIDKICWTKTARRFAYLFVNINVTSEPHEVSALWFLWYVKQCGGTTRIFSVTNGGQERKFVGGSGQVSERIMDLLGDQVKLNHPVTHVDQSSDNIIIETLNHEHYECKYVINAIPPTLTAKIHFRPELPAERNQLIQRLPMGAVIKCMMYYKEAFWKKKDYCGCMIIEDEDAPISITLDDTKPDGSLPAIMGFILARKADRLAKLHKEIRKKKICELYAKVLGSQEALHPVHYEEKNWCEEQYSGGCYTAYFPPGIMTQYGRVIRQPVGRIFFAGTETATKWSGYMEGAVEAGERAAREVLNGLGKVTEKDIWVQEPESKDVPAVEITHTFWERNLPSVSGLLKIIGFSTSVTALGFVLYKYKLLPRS", "assay": "Amplex Red MAO fluorimetric assay, % inhibition at […]", "details": "read-out: hMAO-A % Inh 100 μM"}, "[2]": {"molecular_target": "T2, hBuChE (Homo sapiens, UniProt P06276)", "T2 construct": "gene BCHE; BuChE isolated from human serum", "T2 sequence (P06276 29-602)": "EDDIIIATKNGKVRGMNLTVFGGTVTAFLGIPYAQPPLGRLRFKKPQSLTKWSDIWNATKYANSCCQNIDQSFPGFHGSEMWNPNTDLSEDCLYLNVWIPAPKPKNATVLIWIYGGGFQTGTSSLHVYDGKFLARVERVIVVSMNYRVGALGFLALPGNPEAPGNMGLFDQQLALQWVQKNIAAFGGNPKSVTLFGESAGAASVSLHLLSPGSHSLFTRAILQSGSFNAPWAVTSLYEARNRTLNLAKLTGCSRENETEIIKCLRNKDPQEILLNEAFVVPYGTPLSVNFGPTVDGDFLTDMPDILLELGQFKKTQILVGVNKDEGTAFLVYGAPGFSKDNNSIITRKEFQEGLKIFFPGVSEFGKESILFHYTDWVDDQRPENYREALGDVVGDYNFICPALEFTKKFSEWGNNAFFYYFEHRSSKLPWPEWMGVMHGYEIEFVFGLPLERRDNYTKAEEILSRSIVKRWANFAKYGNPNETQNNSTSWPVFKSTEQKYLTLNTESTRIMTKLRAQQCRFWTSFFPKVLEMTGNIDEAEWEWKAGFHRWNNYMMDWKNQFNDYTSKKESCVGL", "assay": "Ellman assay, % inhibition at […]", "details": "read-out: hBuChE % Inh 100 μM"}, "[3]": {"molecular_target": "T3, hMAO-B (Homo sapiens, UniProt P27338)", "T3 construct": "gene MAOB; recombinant hMAO-B", "T3 sequence (P27338 2-520)": "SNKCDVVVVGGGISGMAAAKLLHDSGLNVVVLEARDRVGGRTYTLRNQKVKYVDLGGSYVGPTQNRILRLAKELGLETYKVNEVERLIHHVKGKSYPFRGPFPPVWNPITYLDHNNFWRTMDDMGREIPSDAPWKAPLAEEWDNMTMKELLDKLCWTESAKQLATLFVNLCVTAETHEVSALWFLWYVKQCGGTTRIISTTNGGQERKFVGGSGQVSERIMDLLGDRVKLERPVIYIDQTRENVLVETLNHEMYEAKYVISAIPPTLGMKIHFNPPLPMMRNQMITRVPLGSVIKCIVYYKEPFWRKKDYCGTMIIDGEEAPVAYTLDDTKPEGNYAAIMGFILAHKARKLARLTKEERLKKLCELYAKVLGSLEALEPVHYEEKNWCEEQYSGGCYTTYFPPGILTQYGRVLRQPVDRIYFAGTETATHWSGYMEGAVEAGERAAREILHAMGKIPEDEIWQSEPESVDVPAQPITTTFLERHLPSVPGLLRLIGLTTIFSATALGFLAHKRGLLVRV", "assay": "Amplex Red MAO fluorimetric assay, recombinant enzyme, p-tyramine substrate"}, "[4]": {"molecular_target": "T3, hMAO-B", "assay": "Amplex Red MAO fluorimetric assay, % inhibition at […]", "details": "read-out: hMAO-B % Inh 100 μM"}},
  "data": [
    {"smiles": "O=C(/C=C(O)/C=C/c1cc(O)c(O)cc1O)/C=C/c1cc2ccc(O)c(O)c2oc1=O", "note": "[compound 12, 7,8-Dihydroxy-3-(7-(2′,4′,5′-trihydroxyphenyl)-3,5-dioxohepta-1,6-dien-1-yl)coumarin]", "values": [
      {"measurement": "inhibition at 100 µM", "setting": "[1]", "result": "60.9 ± 4.09", "unit": "%"}
    ]},
    {"smiles": "O=C(/C=C(O)/C=C/c1cc(O)c(O)c(O)c1)/C=C/c1cc2ccc(O)c(O)c2oc1=O", "note": "[compound 14, 7,8-Dihydroxy-3-(7-(3′,4′,5′-trihydroxyphenyl)-3,5-dioxohepta-1,6-dien-1-yl)coumarin]", "values": [
      {"measurement": "inhibition at 100 µM", "setting": "[1]", "result": "54.3 ± 3.64", "unit": "%"}
    ]},
    {"smiles": "O=C(/C=C/c1c(O)cc(O)cc1O)CC(=O)/C=C/c1cc2cc(O)c(O)cc2oc1=O", "note": "[compound 15, 6,7-Dihydroxy-3-(7-(2′,4′,6′-trihydroxyphenyl)-3,5-dioxohepta-1,6-dien-1-yl)coumarin]", "values": [
      {"measurement": "inhibition at 100 µM", "setting": "[2]", "result": "50.9 ± 3.41", "unit": "%"}
    ]},
    {"smiles": "O=C(/C=C(O)/C=C/c1cc(O)c(O)cc1O)/C=C/c1cc2cc(O)c(O)cc2oc1=O", "note": "[compound 16, 6,7-Dihydroxy-3-(7-(2′,4′,5′-trihydroxyphenyl)-3,5-dioxohepta-1,6-dien-1-yl)coumarin]", "values": [
      {"measurement": "IC50", "setting": "[3]", "result": "26.2 ± 1.76", "unit": "µM"},
      {"measurement": "inhibition at 100 µM", "setting": "[1]", "result": "58.2 ± 3.9", "unit": "%"}
    ]},
    {"smiles": "O=C(/C=C(O)/C=C/c1cc(O)c(O)c(O)c1)/C=C/c1cc2cc(O)c(O)cc2oc1=O", "note": "[compound 18, 6,7-Dihydroxy-3-(7-(3′,4′,5′-trihydroxyphenyl)-3,5-dioxohepta-1,6-dien-1-yl)coumarin]", "values": [
      {"measurement": "inhibition at 100 µM", "setting": "[1]", "result": "51.5 ± 3.45", "unit": "%"},
      {"measurement": "inhibition at 100 µM", "setting": "[4]", "result": "55.7 ± 3.74", "unit": "%"}
    ]}
  ]
}
